Measured values published in patent publication US5011831A, “Derivatives of quinolinecarboxylic acid” (Nippon Shinyaku Co. Ltd., priority 1987, dated 1991).
Values after ≈ are worked out from the molar mass of the structure shown. Read-outs that look alike come from different tables or passages of the source.

How the values were obtained:
[1] = tested on: Klebsiella pneumoniae NCTC 9632; assay: MIC, agar plate dilution method; format: cell-based
Experimental: (§1) Test Method: In accordance with a standard method by Japan Chemotherapeutic Society [Chemotherapy, 29(1), pages 76-79, 1981], agar plate dilution method was used and the MIC was measured. Thus, bouillon for measuring sensitivity was used and the bacterial liquid cultured at 37° C. for 18 hours was diluted to an extent of 10^6 CFU/ml using said medium. This was inoculated to an agar medium containing drug for measuring sensitivity using a microplanter, cultured at 37° C. for 18 hours, and MIC was measured. Ofloxacin was used for comparison/control.
(§2) The above described test was additionally conducted on the compounds of the examples described below using the same microorganisms.

[2] = tested on: Staphylococcus aureus 209-P JC-1; assay: MIC, agar plate dilution method; format: cell-based
Experimental: as §1, §2

[3] = tested on: Bacillus subtilis ATCC 6633; assay: MIC, agar plate dilution method; format: cell-based
Experimental: as §1, §2

[4] = tested on: Pseudomonas aeruginosa IFO-3445; assay: MIC, agar plate dilution method; format: cell-based
Experimental: as §1, §2

[5] = tested on: Shigella flexneri 2a EW-10; assay: MIC, agar plate dilution method; format: cell-based
Experimental: as §1, §2

[6] = tested on: Escherichia coli N1HJ JC-2; assay: MIC, agar plate dilution method; format: cell-based
Experimental: as §1, §2

[7] = tested on: Serratia marcescens IFO 3736; assay: MIC, agar plate dilution method; format: cell-based
Experimental: as §1, §2

[8] = tested on: E. Coli KC-14; assay: Therapeutic effect on infections in mice, similar test (Table 4); format: in vivo, ddY strain male mice; conditions: E. coli KC-14, 2.5×10^5 cfu/mouse
Experimental: (§3) Test method: E. Coli KC-14 and P. aeruginosa E-2 were suspended in 5% mucin and 0.5 ml of the suspension was injected intraperitoneally to ddY strain male mice (body weight: ca. 20 g; four weeks age; 10 mice per group). The amount of the bacteria inoculated was 5.1×10^4 CFU/mouse for E. coli and 7.5×10^4 CFU/mouse for P. aeruginosa. Drug was given orally once after 2 hours of inoculation and, out of the survival rate after one week, ED50 was calculated by a Probit method. As to a comparison/control, ofloxacin was used.
(§4) A similar test was conducted by inoculating E. coli KC-14 (2.5×10^5 cfu/mouse) and P. aeruginosa E-2 (1.25×10^5 cfu/mouse) and the result is given in Table 4.

[9] = tested on: P. aeruginosa E-2; assay: as above; format: in vivo, ddY strain male mice; conditions: P. aeruginosa E-2, 1.25×10^5 cfu/mouse
Experimental: as §3, §4

[10] = tested on: Streptococcus pneumoniae Type I; assay: MIC, agar plate dilution method; format: cell-based
Experimental: as §1, §2

[11] = tested on: Proteus mirabilis IFO 3849; assay: MIC, agar plate dilution method; format: cell-based; conditions: IFO3849, Table 1, 10^6 CFU/ml, 37° C., 18 hours
Experimental: as §1, §2

[12] = tested on: Streptococcus pyogenes S-23; assay: MIC, agar plate dilution method; format: cell-based
Experimental: as §1, §2

[13] = tested on: E. Coli KC-14; assay: Therapeutic effect on infections in mice (Table 3); format: in vivo, ddY strain male mice; conditions: E. coli KC-14, 5.1×10^4 CFU/mouse i.p.; drug orally once 2 hours after inoculation; survival after one week, Probit
Experimental: as §3

[14] = tested on: P. aeruginosa E-2; assay: Therapeutic effect on infections in mice (Table 3); format: in vivo, ddY strain male mice; conditions: P. aeruginosa E-2, 7.5×10^4 CFU/mouse i.p.; drug orally once 2 hours after inoculation; survival after one week, Probit
Experimental: as §3

[15] = NCTC9632, 18 h, Table 2, same microorganisms as Table 1
[16] = 18 h, Table 2, same microorganisms as Table 1
[17] = ATCC6633, 18 h, Table 2, same microorganisms as Table 1
[18] = IFO3445, 18 h, Table 2, same microorganisms as Table 1
[19] = 2AEW10, 18 h, Table 2, same microorganisms as Table 1
[20] = N1HJJC2, 18 h, Table 2, same microorganisms as Table 1, read-out: MIC
[21] = IFO3736, 18 h, Table 2, same microorganisms as Table 1
[22] = NCTC9632, Table 1, 10^6 CFU/ml, 37° C., 18 hours
[23] = Table 1, 10^6 CFU/ml, 37° C., 18 hours
[24] = ATCC6633, Table 1, 10^6 CFU/ml, 37° C., 18 hours
[25] = S23, Table 1, 10^6 CFU/ml, 37° C., 18 hours
[26] = IFO3445, Table 1, 10^6 CFU/ml, 37° C., 18 hours
[27] = 2AEW10, Table 1, 10^6 CFU/ml, 37° C., 18 hours
[28] = IFO3736, Table 1, 10^6 CFU/ml, 37° C., 18 hours

Row | SMILES | MIC [1, 15] [µg/mL] | MIC [2, 16] [µg/mL] | MIC [3, 17] [µg/mL] | MIC [4, 18] [µg/mL] | MIC [5, 19] [µg/mL] | MIC [6, 20] [µg/mL] | MIC [7, 21] [µg/mL] | ED50 [8] [mg/mouse] | ED50 [9] [mg/mouse] | ED50 [13] [mg/mouse] | ED50 [14] [mg/mouse] | also measured
1 | O=C(O)c1c2n(c3c(F)c(N4CCNCC4)c(F)cc3c1=O)C(c1ccccc1)S2 (centres unmarked) [Example 21, 6,8-Difluoro-4-oxo-1-phenyl-7-(1-piperazinyl)-4H-[1,3]thiazeto[3,2-a]quinoline-3-carboxylic acid] | ≤ 0.00625 | 0.2 (≈ 0.466 µM) | 0.1 (≈ 0.233 µM) | 0.39 (≈ 0.908 µM) | 0.05 (≈ 0.116 µM) | 0.1 (≈ 0.233 µM) | 1.56 (≈ 3.63 µM) |  |  |  |  | 
2 | CC1Sc2c(C(=O)O)c(=O)c3cc(F)c(N4CCNCC4)c(F)c3n21 (centres unmarked) [Example 2, 6,8-Difluoro-1-methyl-4-oxo-7-(1-piperazinyl)-4H-[1,3]thiazeto[3,2-a]quinoline-3-carboxylic acid] |  |  |  |  |  |  |  | 0.013 | 0.156 | 0.0078 | 0.154 | MIC [1, 22]: 0.0125 µg/mL (≈ 0.034 µM); MIC [2, 23]: 0.1 µg/mL (≈ 0.272 µM); MIC [10, 23]: 0.39 µg/mL (≈ 1.06 µM); MIC [11]: 0.025 µg/mL (≈ 0.068 µM); MIC [3, 24]: 0.05 µg/mL (≈ 0.136 µM); MIC [12, 25]: 0.39 µg/mL (≈ 1.06 µM); MIC [4, 26]: 0.1 µg/mL (≈ 0.272 µM); MIC [5, 27]: ≤ 0.00625 µg/mL; MIC ([6]; N1HJJC2, 18 h): 0.0125 µg/mL (≈ 0.034 µM); MIC [7, 28]: 0.1 µg/mL (≈ 0.272 µM)
3 | NC1CCN(c2c(F)cc3c(=O)c(C(=O)O)c4n(c3c2F)CS4)C1 (centres unmarked) [Example 9, 7-(3-Amino-1-pyrrolidinyl)-6,8-difluoro-4-oxo-4H-[1,3]thiazeto[3,2-a]quinoline-3-carboxylic acid] | 0.0125 (≈ 0.0354 µM) | 0.025 (≈ 0.0708 µM) | 0.1 (≈ 0.283 µM) | 0.0125 (≈ 0.0354 µM) | ≤ 0.00625 | 0.0125 (≈ 0.0354 µM) | 0.1 (≈ 0.283 µM) |  |  |  |  | 
4 | O=C(O)c1c2n(c3c(F)c(N4CCNCC4)c(F)cc3c1=O)CS2 [Example 5, 6,8-Difluoro-4-oxo-7-(1-piperazinyl)-4-oxo-4H-[1,3]thiazeto[3,2-a]quinoline-3-carboxylic acid] | 0.025 (≈ 0.0708 µM) | 0.1 (≈ 0.283 µM) | 0.1 (≈ 0.283 µM) | 0.2 (≈ 0.566 µM) | 0.0125 (≈ 0.0354 µM) | 0.025 (≈ 0.0708 µM) | 0.05 (≈ 0.142 µM) |  |  |  |  | 
5 | CC1Sc2c(C(=O)O)c(=O)c3cc(F)c(N4CCN(C)CC4)c(F)c3n21 (centres unmarked) [Example 4, 6,8-Difluoro-1-methyl-7-(4-methyl-1-piperazinyl)-4-oxo-[1,3]thiazeto[3,2-a]quinoline-3-carboxylic acid] | 0.025 (≈ 0.0655 µM) | 0.2 (≈ 0.524 µM) | 0.05 (≈ 0.131 µM) | 0.2 (≈ 0.524 µM) | 0.0125 (≈ 0.0328 µM) | 0.05 (≈ 0.131 µM) | 0.2 (≈ 0.524 µM) | 0.011 | 0.177 |  |  | MIC [10, 16]: 0.39 µg/mL (≈ 1.02 µM); MIC ([12]; S23, 18 h, Table 2, same microorganisms as Table 1): 0.39 µg/mL (≈ 1.02 µM)
6 | CC1COc2c(N3CCN(C)CC3)c(F)cc3c(=O)c(C(=O)O)cn1c23 (racemic) [Ofloxacin, ofloxacin, reference compound] |  |  |  |  |  |  |  | 0.052 | 0.521 | 0.011 | 0.692 | MIC [1, 22]: 0.05 µg/mL (≈ 0.138 µM); MIC [2, 23]: 0.39 µg/mL (≈ 1.08 µM); MIC [10, 23]: 1.56 µg/mL (≈ 4.32 µM); MIC [11]: 0.39 µg/mL (≈ 1.08 µM); MIC [3, 24]: 0.1 µg/mL (≈ 0.277 µM); MIC [12, 25]: 1.56 µg/mL (≈ 4.32 µM); MIC [4, 26]: 1.56 µg/mL (≈ 4.32 µM); MIC [5, 27]: 0.025 µg/mL (≈ 0.0692 µM); MIC ([6]; N1HJJC2, Table 1, 10^6 CFU/ml, 37° C., 18 hours, read-out: MIC): 0.1 µg/mL (≈ 0.277 µM); MIC [7, 28]: 0.78 µg/mL (≈ 2.16 µM)
7 | CCOC(=O)c1c2n(c3c(F)c(N4CCNCC4)c(F)cc3c1=O)C(C)S2 (centres unmarked) [Example 1, Ethyl 6,8-difluoro-1-methyl-4-oxo-7-(1-piperazinyl)-4H-[1,3]thiazeto[3,2-a]quinoline-3-carboxyate] |  |  |  |  |  |  |  |  |  | 0.0046 | 0.09 | 
8 | CCOC(=O)c1c2n(c3c(F)c(N4CCNCC4)c(F)cc3c1=O)C(c1ccc(F)cc1)S2 (centres unmarked) [Example 25, Ethyl 6,8-difluoro-1-(4-fluorophenyl)-4-oxo-7-(1-piperazinyl)-4H-[1,3]thiazeto[3,2-a]quinoline-3-carboxylate] |  | 0.2 (≈ 0.421 µM) | 0.1 (≈ 0.21 µM) | 0.39 (≈ 0.82 µM) | 0.05 (≈ 0.105 µM) | 0.1 (≈ 0.21 µM) | 1.56 (≈ 3.28 µM) |  |  |  |  | 
9 | CN1CCN(c2c(F)cc3c(=O)c(C(=O)O)c4n(c3c2F)CS4)CC1 [Example 7, 6,8-Difluoro-7-(4-methyl-1-piperazinyl)-4-oxo-4H-[1,3]thiazeto[3,2-a]quinoline-3-carboxylic acid] | 0.0125 (≈ 0.034 µM) | 0.2 (≈ 0.544 µM) | 0.05 (≈ 0.136 µM) | 0.39 (≈ 1.06 µM) | 0.025 (≈ 0.068 µM) | 0.05 (≈ 0.136 µM) | 0.1 (≈ 0.272 µM) | 0.014 | 0.263 |  |  | 
